In patent US9932637B2, “Genetic polymorphisms associated with cardiovascular disorders and drug response, methods of detection and uses thereof” (CELERA CORPORATION, priority 2003, dated 2018):
Several values for one entry are separate records, joined by “and”; a condition that tells them apart may be missing. Identical values can stand only once.

Test system: patients with prior myocardial infarction (CARE study)
Experiment: CARE aligned analysis (prospective and case/control design, white males): association of genotypes with pravastatin efficacy (Tables 13, 15)
Type: in vivo, human
Settings: for 2 Rare Alleles n/total, Pravastatin Patients / 2 Rare Alleles (%), Pravastatin Patients / Pravastatin Patients (%) / Pravastatin Patients n/total: F&NF MI; for 2 rare alleles n/total (%), pravastatin patients / Pravastatin vs placebo odds ratio, 0 rare alleles / Pravastatin vs placebo odds ratio, 1 rare allele / Pravastatin vs placebo odds ratio, 2 rare alleles: CARE, F MI/SD/NF MI; for Pravastatin Patients (%) / Pravastatin Patients n/total: WM
Experimental: The data presented in Table 8 based on an association of genotypes with pravastatin efficacy of the CARE samples were further analyzed and presented in Table 13. The further analysis was performed to align the data obtained from the analysis of the CARE samples, which was a prospective study, to the analysis of the WOSCOP samples, which was a case/control study. Table 13 also presents an analysis of the association of genotypes with pravastatin efficacy in the WOSCOPs samples. Relative to the analysis performed on the data presented in Table 8, there are two significant differences to determine if the SNP influenced pravastatin efficacy. Data obtained from the CARE samples were separated by study design into two groups, those in the prospective study design group and those in the case/control study design group. The original care study contained 16 protocol defined cardiovascular disease defined endpoints and 150 other phenotypes. […] The control groups used to compare the data were also divided into two groups, the “all possible” control group and the “cleaner” control group. […] Because the participants in the WOSCOPs trial were all white males, only data obtained from white males in the CARE study were analysed. Data from the “all possible” and “cleaner” controls were compared to data obtained from the cases in the prospective study design while only data from “cleaner” controls were compared to cases in the case/control study design. The data from the case/control cohorts were analysed using conditional logistic regression (as opposed to logistic regression used for the original anaylsis).
The anaylsis was refined as described for both Tables 13 and 14.

[1] = F7 hCV783184, CARE Case/Control
[2] = F13A1 hCV11972326, CARE Case/Control
[3] = FABP1 hCV16173091, CARE Case/Control
[4] = FCAR hCV7841842, CARE Case/Control
[5] = FN1 hCV9506149, CARE Case/Control
[6] = GALC hCV25922440, CARE Prospective
[7] = GAPD hCV8921288, CARE Case/Control
[8] = GAPD hCV8921288, CARE Prospective
[9] = HLA-DPB1 hCV8851065, 0 Rare Alleles, CARE Case/Control, All Possible controls
[10] = HLA-DPB1 hCV8851065, 0 Rare Alleles, CARE Case/Control, Cleaner controls
[11] = HLA-DPB1 hCV8851065, 1 Rare Allele, CARE Case/Control, All Possible controls
[12] = HLA-DPB1 hCV8851065, 1 Rare Allele, CARE Case/Control, Cleaner controls
[13] = HLA-DPB1 hCV8851065, Case/Control
[14] = HLA-DPB1 hCV8851065, Prospective
[15] = HLA-DPB1 hCV8851084, 0 Rare Alleles, CARE Case/Control, All Possible controls
[16] = HLA-DPB1 hCV8851084, 0 Rare Alleles, CARE Case/Control, Cleaner controls
[17] = HLA-DPB1 hCV8851084, 0 Rare Alleles, CARE Prospective, Cleaner controls
[18] = HLA-DPB1 hCV8851084, 1 Rare Allele, CARE Case/Control, All Possible controls
[19] = HLA-DPB1 hCV8851084, 1 Rare Allele, CARE Case/Control, Cleaner controls
[20] = HLA-DPB1 hCV8851084, 1 Rare Allele, CARE Prospective, Cleaner controls
[21] = HLA-DPB1 hCV8851084, Case/Control
[22] = HLA-DPB1 hCV8851084, Prospective
[23] = HLA-DPB1 hCV8851085, 0 Rare Alleles, CARE Case/Control, All Possible controls
[24] = HLA-DPB1 hCV8851085, 0 Rare Alleles, CARE Case/Control, Cleaner controls
[25] = HLA-DPB1 hCV8851085, 0 Rare Alleles, CARE Prospective, All Possible controls

**Q.** `CC[C@H](C)C(=O)O[C@H]1C[C@H](O)C=C2C=C[C@H](C)[C@H](CC[C@@H](O)C[C@@H](O)CC(=O)O)[C@H]21` [pravastatin] was tested. Which “2 Rare Alleles n/total, Pravastatin Patients” value (F7 hCV783138, CARE Prospective) did it give?
**A.** 1/13 and 1/9

**Q.** What about the “2 Rare Alleles (%), Pravastatin Patients” value [1] of the same molecule?
**A.** (14.3%)

**Q.** And the “2 Rare Alleles n/total, Pravastatin Patients” value [1]?
**A.** 2/14

**Q.** And the “2 Rare Alleles (%), Pravastatin Patients” value (F7 hCV783184, CARE Prospective)?
**A.** (14.3%)

**Q.** What about the “2 Rare Alleles n/total, Pravastatin Patients” value (F7 hCV783184, CARE Prospective) of the same molecule?
**A.** 2/14

**Q.** And the “2 Rare Alleles (%), Pravastatin Patients” value [2]?
**A.** (19.4%)

**Q.** What about the “2 Rare Alleles n/total, Pravastatin Patients” value [2] of the same molecule?
**A.** 14/72

**Q.** What about the “2 Rare Alleles (%), Pravastatin Patients” value [3] of the same molecule?
**A.** (20.9%)

**Q.** And the “2 Rare Alleles n/total, Pravastatin Patients” value [3]?
**A.** 19/91

**Q.** And the “2 Rare Alleles n/total, Pravastatin Patients” value (FABP1 hCV16173091, CARE Prospective)?
**A.** 19/127 and 19/91

**Q.** What about the “2 rare alleles n/total (%), pravastatin patients” value (“2 rare alleles n/total (%)” for short) (FCAR hCV7841642, Prospective) of the same molecule?
**A.** (12.5%)

**Q.** What about the “Pravastatin vs placebo odds ratio, 0 rare alleles” value (FCAR hCV7841642, Prospective) of the same molecule?
**A.** 0.84

**Q.** What about the “Pravastatin vs placebo odds ratio, 1 rare allele” value (FCAR hCV7841642, Prospective) of the same molecule?
**A.** 0.27

**Q.** What about the “Pravastatin vs placebo odds ratio, 2 rare alleles” value (FCAR hCV7841642, Prospective) of the same molecule?
**A.** 0.43

**Q.** And the “2 Rare Alleles (%), Pravastatin Patients” value [4]?
**A.** (12.5%)

**Q.** And the “2 Rare Alleles n/total, Pravastatin Patients” value [4]?
**A.** 1/8

**Q.** What about the “2 Rare Alleles (%), Pravastatin Patients” value [5] of the same molecule?
**A.** (13.8%)

**Q.** And the “2 Rare Alleles n/total, Pravastatin Patients” value [5]?
**A.** 12/87

**Q.** What about the “2 Rare Alleles (%), Pravastatin Patients” value [6] of the same molecule?
**A.** (14.7%)

**Q.** And the “2 Rare Alleles n/total, Pravastatin Patients” value [6]?
**A.** 5/34

**Q.** And the “2 rare alleles n/total (%)” value (GALC hCV25922440, Prospective)?
**A.** (14.7%)

**Q.** What about the “Pravastatin vs placebo odds ratio, 0 rare alleles” value (GALC hCV25922440, Prospective) of the same molecule?
**A.** 0.94

**Q.** What about the “Pravastatin vs placebo odds ratio, 1 rare allele” value (GALC hCV25922440, Prospective) of the same molecule?
**A.** 0.38

**Q.** And the “Pravastatin vs placebo odds ratio, 2 rare alleles” value (GALC hCV25922440, Prospective)?
**A.** 1.12

**Q.** And the “2 Rare Alleles (%), Pravastatin Patients” value [7]?
**A.** (7.5%)

**Q.** And the “2 Rare Alleles n/total, Pravastatin Patients” value [7]?
**A.** 4/53 and 4/38

**Q.** And the “2 Rare Alleles (%), Pravastatin Patients” value [8]?
**A.** (10.5%)

**Q.** What about the “2 Rare Alleles n/total, Pravastatin Patients” value [8] of the same molecule?
**A.** 4/38

**Q.** What about the “Pravastatin Patients (%)” value [9] of the same molecule?
**A.** (10.0%)

**Q.** What about the “Pravastatin Patients n/total” value [9] of the same molecule?
**A.** 63/633

**Q.** And the “Pravastatin Patients (%)” value [10]?
**A.** (14.2%)

**Q.** What about the “Pravastatin Patients n/total” value [10] of the same molecule?
**A.** 63/445

**Q.** What about the “Pravastatin Patients (%)” value [11] of the same molecule?
**A.** (10.0%)

**Q.** And the “Pravastatin Patients n/total” value [11]?
**A.** 49/491

**Q.** And the “Pravastatin Patients (%)” value [12]?
**A.** (14.9%)

**Q.** What about the “Pravastatin Patients n/total” value [12] of the same molecule?
**A.** 49/329

**Q.** What about the “2 rare alleles n/total (%)” value [13] of the same molecule?
**A.** (14.8%)

**Q.** And the “Pravastatin vs placebo odds ratio, 0 rare alleles” value [13]?
**A.** 0.60 and 0.52

**Q.** And the “Pravastatin vs placebo odds ratio, 1 rare allele” value [13]?
**A.** 0.87 and 0.80

**Q.** And the “Pravastatin vs placebo odds ratio, 2 rare alleles” value [13]?
**A.** 5.02 and 5.41

**Q.** And the “2 rare alleles n/total (%)” value [14]?
**A.** (14.8%)

**Q.** What about the “Pravastatin vs placebo odds ratio, 0 rare alleles” value [14] of the same molecule?
**A.** 0.62 and 0.55

**Q.** What about the “Pravastatin vs placebo odds ratio, 1 rare allele” value [14] of the same molecule?
**A.** 0.86 and 0.76

**Q.** What about the “Pravastatin vs placebo odds ratio, 2 rare alleles” value [14] of the same molecule?
**A.** 4.85 and 4.94

**Q.** And the “Pravastatin Patients (%)” value [15]?
**A.** (10.2%)

**Q.** What about the “Pravastatin Patients n/total” value [15] of the same molecule?
**A.** 80/785

**Q.** And the “Pravastatin Patients (%)” value [16]?
**A.** (14.7%)

**Q.** What about the “Pravastatin Patients n/total” value [16] of the same molecule?
**A.** 80/546

**Q.** And the “Pravastatin Patients (%)” value [17]?
**A.** (14.4%)

**Q.** What about the “Pravastatin Patients n/total” value [17] of the same molecule?
**A.** 80/556

**Q.** What about the “Pravastatin Patients (%)” value [18] of the same molecule?
**A.** (10.1%)

**Q.** What about the “Pravastatin Patients n/total” value [18] of the same molecule?
**A.** 39/385

**Q.** And the “Pravastatin Patients (%)” value [19]?
**A.** (14.9%)

**Q.** And the “Pravastatin Patients n/total” value [19]?
**A.** 39/262

**Q.** And the “Pravastatin Patients (%)” value [20]?
**A.** (14.7%)

**Q.** What about the “Pravastatin Patients n/total” value [20] of the same molecule?
**A.** 39/265

**Q.** And the “2 Rare Alleles (%), Pravastatin Patients” value (HLA-DPB1 hCV8851084, CARE Prospective)?
**A.** (25.0%)

**Q.** What about the “2 rare alleles n/total (%)” value [21] of the same molecule?
**A.** (22.6%)

**Q.** What about the “Pravastatin vs placebo odds ratio, 0 rare alleles” value [21] of the same molecule?
**A.** 0.60

**Q.** And the “Pravastatin vs placebo odds ratio, 1 rare allele” value [21]?
**A.** 0.84

**Q.** And the “Pravastatin vs placebo odds ratio, 2 rare alleles” value [21]?
**A.** 5.83

**Q.** What about the “2 rare alleles n/total (%)” value [22] of the same molecule?
**A.** (22.6%)

**Q.** And the “Pravastatin vs placebo odds ratio, 0 rare alleles” value [22]?
**A.** 0.61

**Q.** And the “Pravastatin vs placebo odds ratio, 1 rare allele” value [22]?
**A.** 0.82

**Q.** And the “Pravastatin vs placebo odds ratio, 2 rare alleles” value [22]?
**A.** 4.81

**Q.** What about the “Pravastatin Patients (%)” value [23] of the same molecule?
**A.** (10.1%)

**Q.** What about the “Pravastatin Patients n/total” value [23] of the same molecule?
**A.** 74/733

**Q.** What about the “Pravastatin Patients (%)” value [24] of the same molecule?
**A.** (14.4%)

**Q.** What about the “Pravastatin Patients n/total” value [24] of the same molecule?
**A.** 74/513

**Q.** What about the “Pravastatin Patients (%)” value [25] of the same molecule?
**A.** (9.9%)

**Q.** What about the “Pravastatin Patients n/total” value [25] of the same molecule?
**A.** 74/747
